Our source for the IC50 values is patent US12404270B2, “Quinazoline derivatives as LPA receptor 2 inhibitors” (CHIESI FARMACEUTICI S.P.A., priority 2019, dated 2025).

Some results are limits rather than exact numbers.

As usually defined, the IC50 is the concentration that gives 50% inhibition.

In the first test the target is T1, human recombinant LPA2 expressed in CHO cells (Homo sapiens, UniProt Q9HBW0).
T1 construct: expressed in transfected cells; host or cells: CHO (CHO-hLPA2 cell line)
T1 sequence (Q9HBW0 whole entry): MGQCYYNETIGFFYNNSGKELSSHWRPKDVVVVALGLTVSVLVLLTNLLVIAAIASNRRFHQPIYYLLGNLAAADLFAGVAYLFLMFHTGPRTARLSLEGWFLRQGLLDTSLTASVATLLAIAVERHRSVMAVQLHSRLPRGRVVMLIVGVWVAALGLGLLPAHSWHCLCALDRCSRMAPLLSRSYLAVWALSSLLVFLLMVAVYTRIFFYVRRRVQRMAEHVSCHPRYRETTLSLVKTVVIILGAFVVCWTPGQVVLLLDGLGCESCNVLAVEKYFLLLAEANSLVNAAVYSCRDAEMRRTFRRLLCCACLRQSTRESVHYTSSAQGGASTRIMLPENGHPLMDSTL
Kind of test: FLIPR calcium mobilization assay, LPA2 antagonism in CHO-hLPA2 cells. The note with it: CHO-hLPA2 cells, inhibition of LPA EC80 Ca2+ response, 30 min pre-incubation; read-out: LPA2 IC50. The test is classed as cell-based. As for the experimental part:
The effectiveness of compounds of the present invention as LPA2 antagonist can be determined at the human recombinant LPA2 expressed in CHO cells, using a FLIPR assay in 384 well format.
CHO-hLPA2 cell lines are cultured in a humidified incubator at 5% CO2 in DMEM/F-12 (1:1) MIXTURE with 2 mM Glutamax, supplemented with 10% of Foetal Bovine Serum, 1 mM Sodium Pyruvate, 11 mM Hepes and 1× Penicillin/Streptomycin. CHO hLPA2 cells are seeded into black walled clear-bottom 384-well plates (#781091, Greiner Bio-One GmbH) at a density of 7,500 cells per well in 50 μl culture media and grown overnight in a 37° C. humidified CO2-incubator. Serial dilutions (1:3 or 1:4, 11 points CRC) of compounds are performed in 100% DMSO at 200× the final concentration. The compounds are diluted 1:50 prior to the experiment with Assay Buffer (20 mM HEPES, 145 mM NaCl, 5 mM KCl, 5.5 mM glucose, 1 mM MgCl2 and 2 mM CaCl2, pH 7.4 containing 0.01% Pluronic F-127) to obtain a solution corresponding to […] the final concentration in the assay (4×, 2% DMSO). The final concentration of DMSO in the assay will be 0.5% in each well. Medium is removed by aspiration and cells are then incubated with 30 μl of a loading solution containing 5 μM of the cytoplasmic Ca2+ indicator Cal-520 AM in Assay Buffer containing 2.5 mM probenecid for 30 min at 37° C. incubator (cell loading). The loaded cell plates are transferred into the FLIPR instrument and calcium responses are monitored during the on-line addition protocols. For testing of compounds, after the cell loading, 10 μl/well of 4× antagonists' solution was added onto the cells. […] Intracellular peak fluorescence values subtracted by baseline fluorescence are exported and analysed to determine IC50 values, respectively. The calcium response is expressed as percentage of the maximal inhibition of the EC80 agonist response.
The raw data (peak height expressed as relative fluorescence units) are normalized and transformed into “percent of inhibition”. Curve fitting and pIC50 (−Log IC50) estimations are carried out using a four-parameter logistic model using XLfit Software.
On the technique in general: Calcium assays in cells follow changes in intracellular calcium, usually with a dye or a luminescent sensor.
For `COC(=O)Nc1nc(C)c(S(=O)(=O)N2CCN(C[C@H](C)Nc3nc(C)nc4c(C(F)(F)F)cccc34)CC2)s1` [Example 2, methyl N-[4-methyl-5-({4-[(2S)-2-{[2-methyl-8-(trifluoromethyl)quinazolin-4-yl]amino}propyl]piperazin-1-yl}sulfonyl)-1,3-thiazol-2-yl]carbamate], the IC50 was 10 to 100 nM.
Same read-out and setting: the result for `COC(=O)Nc1nc(C)c(S(=O)(=O)N2CCN(C[C@H](C)Nc3ncnc4c(C(=O)N5CCC[C@@H]5C(F)(F)F)cccc34)CC2)s1` (racemic) [Example 79, methyl N-[4-methyl-5-({4-[(2S)-2-({8-[(2R)-2-(trifluoromethyl)pyrrolidine-1-carbonyl]quinazolin-4-yl}amino)propyl]piperazin-1-yl}sulfonyl)-1,3-thiazol-2-yl]carbamate] reads 10 to 100 nM; that for `Cc1cc(-c2ccc(S(=O)(=O)N3CCN(C[C@H](C)Nc4ncnc5c(N(C)C)cccc45)CC3)s2)on1` [Example 96, N8,N8-dimethyl-N4-[(2S)-1-(4-{[5-(3-methyl-1,2-oxazol-5-yl)thiophen-2-yl]sulfonyl}piperazin-1-yl)propan-2-yl]quinazoline-4,8-diamine], under 10 nM; that for `CC(=O)Nc1ncc(S(=O)(=O)N2CCN(C[C@H](C)Nc3nc(C4CC4)nc4c(C)cccc34)CC2)s1` [Example 19, N-[5-({4-[(2S)-2-[(2-cyclopropyl-8-methylquinazolin-4-yl)amino]propyl]piperazin-1-yl}sulfonyl)-1,3-thiazol-2-yl]acetamide], under 1000 nM.
Regarding `Cc1noc(-c2ccc(S(=O)(=O)N3CCN(C[C@H](C)Nc4ncnc5c(C(=O)N(C)C)cccc45)CC3)s2)c1C` [Example 43, 4-{[(2S)-1-(4-{[5-(3,4-dimethyl-1,2-oxazol-5-yl)thiophen-2-yl]sulfonyl}piperazin-1-yl)propan-2-yl]amino}-N,N-dimethylquinazoline-8-carboxamide], the half-inhibitory concentration (IC50) was under 10 nM.
On the same count and under the same terms, the figure for `COC(=O)c1cccc2c(N[C@@H](C)CN3CCN(S(=O)(=O)c4cnc(-c5ccccc5)s4)CC3)ncnc12` [Example 12, methyl 4-{[(2S)-1-{4-[(2-phenyl-1,3-thiazol-5-yl)sulfonyl]piperazin-1-yl}propan-2-yl]amino}quinazoline-8-carboxylate] is 10 to 100 nM; for `Cc1noc(-c2ccc(S(=O)(=O)N3CCN(C[C@H](C)Nc4ncnc5c(OC(F)F)cccc45)CC3)s2)c1C` [Example 4, 8-(difluoromethoxy)-N-[(2S)-1-(4-{[5-(3,4-dimethyl-1,2-oxazol-5-yl)thiophen-2-yl]sulfonyl}piperazin-1-yl)propan-2-yl]quinazolin-4-amine] it is 10 to 100 nM; for `CC(=O)Nc1cc(F)c(S(=O)(=O)N2CCN(C[C@H](C)Nc3ncnc4c(C(F)(F)F)cccc34)CC2)cc1Cl` [Example 42, N-[2-chloro-5-fluoro-4-({4-[(2S)-2-{[8-(trifluoromethyl)quinazolin-4-yl]amino}propyl]piperazin-1-yl}sulfonyl)phenyl]acetamide] it is under 1000 nM.
Still for that read-out and setting: the figure for `COC(=O)Nc1ncc(S(=O)(=O)N2CCN(C[C@H](C)Nc3ncnc4c(C(F)(F)F)cccc34)CC2)s1` [Example 26, methyl N-[5-({4-[(2S)-2-{[8-(trifluoromethyl)quinazolin-4-yl]amino}propyl]piperazin-1-yl}sulfonyl)-1,3-thiazol-2-yl]carbamate] is under 1000 nM; for `Cc1noc(-c2ccc(S(=O)(=O)N3CCN(C[C@H](C)Nc4ncnc5c(C(=O)N6CCC[C@@H]6C(F)(F)F)cccc45)CC3)s2)c1C` (racemic) [Example 76, N-[(2S)-1-(4-{[5-(3,4-dimethyl-1,2-oxazol-5-yl)thiophen-2-yl]sulfonyl}piperazin-1-yl)propan-2-yl]-8-[(2R)-2-(trifluoromethyl)pyrrolidine-1-carbonyl]quinazolin-4-amine] it is under 10 nM; for `COC(=O)c1cccc2c(N[C@@H](C)CN3CCN(S(=O)(=O)c4ccc(-c5ccno5)s4)CC3)ncnc12` [Example 16, methyl 4-{[(2S)-1-(4-{[5-(1,2-oxazol-5-yl)thiophen-2-yl]sulfonyl}piperazin-1-yl)propan-2-yl]amino}quinazoline-8-carboxylate] it is 10 to 100 nM.
On the same count and under the same terms, the result for `Cc1noc(-c2ccc(S(=O)(=O)N3CCN(C[C@H](C)Nc4ncnc5c(CN(C)C)cccc45)CC3)s2)c1C` [Example 74, N-[(2S)-1-(4-{[5-(3,4-dimethyl-1,2-oxazol-5-yl)thiophen-2-yl]sulfonyl}piperazin-1-yl)propan-2-yl]-8-[(dimethylamino)methyl]quinazolin-4-amine] reads under 1000 nM; that for `Cc1noc(-c2ccc(S(=O)(=O)N3CCN(C[C@H](C)Nc4ncnc5c(C(=O)N6CCC[C@@H]6C)cccc45)CC3)s2)c1C` (racemic) [Example 86, N-[(2S)-1-(4-{[5-(3,4-dimethyl-1,2-oxazol-5-yl)thiophen-2-yl]sulfonyl}piperazin-1-yl)propan-2-yl]-8-[(2S)-2-methylpyrrolidine-1-carbonyl]quinazolin-4-amine], under 10 nM; that for `C[C@@H](CN1CCN(S(=O)(=O)c2ccc(-c3ccon3)s2)CC1)Nc1ncnc2c(C(F)(F)F)cccc12` [Example 53, N-[(2S)-1-(4-{[5-(1,2-oxazol-3-yl)thiophen-2-yl]sulfonyl}piperazin-1-yl)propan-2-yl]-8-(trifluoromethyl)quinazolin-4-amine], 10 to 100 nM.
Regarding `COCC(=O)Nc1nc(C)c(S(=O)(=O)N2CCN(C[C@H](C)Nc3ncnc4c(C(F)(F)F)cccc34)CC2)s1` [Example 25, 2-methoxy-N-[4-methyl-5-({4-[(2S)-2-{[8-(trifluoromethyl)quinazolin-4-yl]amino}propyl]piperazin-1-yl}sulfonyl)-1,3-thiazol-2-yl]acetamide], the IC50 is under 1000 nM.
Same read-out and setting: the figure for `Cc1cc(-c2ccc(S(=O)(=O)N3CCN(C[C@H](C)Nc4ncnc5c(OC(=O)N(C)C)cccc45)CC3)s2)on1` [Example 91, 4-{[(2S)-1-(4-{[5-(3-methyl-1,2-oxazol-5-yl)thiophen-2-yl]sulfonyl}piperazin-1-yl)propan-2-yl]amino}quinazolin-8-yl N,N-dimethylcarbamate] is 10 to 100 nM; for `COC(=O)Nc1nc(C)c(S(=O)(=O)N2CCN(C[C@H](C)Nc3nc(C(F)(F)F)nc4ccccc34)CC2)s1` [Example 11, methyl N-[4-methyl-5-({4-[(2S)-2-{[2-(trifluoromethyl)quinazolin-4-yl]amino}propyl]piperazin-1-yl}sulfonyl)-1,3-thiazol-2-yl]carbamate] it is under 1000 nM.
As for `COC(=O)Nc1nc(C)c(S(=O)(=O)N2CCN(C[C@H](C)Nc3ncnc4c(C(=O)N5CCC[C@H]5C(F)(F)F)cccc34)CC2)s1` (racemic) [Example 84, methyl N-[4-methyl-5-({4-[(2S)-2-({8-[(2S)-2-(trifluoromethyl)pyrrolidine-1-carbonyl]quinazolin-4-yl}amino)propyl]piperazin-1-yl}sulfonyl)-1,3-thiazol-2-yl]carbamate], the IC50 was under 1000 nM.

The same test, now with this note: same in vitro assay as Table 2; read-out: IC50 on LPA2 receptor.
For the compound `COC(=O)Nc1nc(C)c(S(=O)(=O)N2CCN(C[C@H](C)Nc3ncnc4ncccc34)CC2)s1` [comparative Example A, Methyl (S)-(4-methyl-5-((4-(2-(pyrido[2,3-d]pyrimidin-4 ylamino)propyl)piperazin-1-yl)sulfonyl)thiazol-2-yl)carbamate, reference compound], the IC50 was over 3000 nM.
